One may read the EC50 as the concentration at which the effect is half-maximal.

Where only a bound is given, the exact number is not on record here.

Results on 25 compounds are retold here after patent US9067898B1, “Isothiazole derivatives as GPR120 agonists for the treatment of type II diabetes” (Janssen Pharmaceutica NV, priority 2014, dated 2015).

For the assay, the target named is T1, Human GPR120 short form (Homo sapiens, UniProt Q5NUL3).
T1 construct: expressed in transfected cells
T1 sequence (Q5NUL3 1-361): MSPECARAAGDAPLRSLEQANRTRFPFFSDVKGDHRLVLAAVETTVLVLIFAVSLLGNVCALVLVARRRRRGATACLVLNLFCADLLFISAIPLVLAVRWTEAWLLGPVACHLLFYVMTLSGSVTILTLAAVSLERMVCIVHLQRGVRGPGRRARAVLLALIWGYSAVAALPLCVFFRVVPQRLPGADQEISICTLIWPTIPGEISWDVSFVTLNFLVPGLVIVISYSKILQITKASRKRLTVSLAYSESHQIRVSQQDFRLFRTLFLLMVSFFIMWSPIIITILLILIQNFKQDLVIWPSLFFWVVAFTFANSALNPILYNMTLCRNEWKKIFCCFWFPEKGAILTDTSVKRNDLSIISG
As to the kind of experiment: Human GPR120 calcium flux assay (FLIPR), Procedure Calcium A. The format is cell-based. As to conditions: HEK-293 cells expressing human GPR120 short form, 2500 cells/well; read-out: GPR120 Ca2+ Assay A EC50. The source says: This in vitro assay serves to assess test compound agonist activity against the short splice variant (SVS with Accession number NM_001195755.1 confirmed by sequencing data) of the GPR120 receptor. The Human Short splice variant #2 (NM_001195755.1) is missing an in-frame coding exon compared to variant 1 (the Human Long splice variant NM_181745.3), resulting in a shorter isoform (GPR120-S) lacking a 16 aa protein segment compared to isoform GPR120-L. The assay platform utilizes HEK-293 cells stably transfected to express the Human GPR120 short form. These cells are first loaded with the Ca^+2 sensitive dye, Fluo-4 NW. Upon stimulation, intracellular released Ca^+2 can bind to the dye and alter its fluorescence intensity. This increase in fluorescence signal, and thus the flux in intracellular [Ca^2+], is detected and quantitated by fluorescence imaging using a FLIPR reader. The effect of the agonist is measured as a function of concentration and used to calculate an EC50 based upon a response curve.
In this procedure 2500 cells/well were employed.
A Human GPR120 clone (Genbank accession number NM_001195755.1) was placed into the pcDNA3.1 mammalian expression vector carrying the neomycin resistance gene. A stable mammalian cell was generated by placing the above clone into a HEK293 background. Clonal cells responding to long chain fatty acids had expression levels of GPR120 confirmed by RT-qPCR. Human HEK-GPR120 cells were cultured in Dulbecco's Modified Eagle's Medium (DMEM)/F12 medium supplemented with 10% fetal bovine serum (FBS), 1% L-Glutamine and 1% penicillin/streptomycin and 0.5 mg/ml G-418. Cells were split 2 times a week to keep the cells in the log-phase growth.
In preparation for the assay, HEK cells stably transfected with Human GPR120 (2.5K cells per well in 25 uL growth medium) were seeded into 384-well plates and then incubated overnight (37° C., 5% CO2). The next day, the media was changed to 20 μL assay buffer and the cell starved for 1 h at 37° C. The dye loading solution (2× dye) was prepared using 10 mL assay buffer, 100 μL of 250 mM probenecid, 1 bottle of Component A, and 20 μl of dye in DMSO. Twenty μL of the 2× dye loading buffer was then added to each well. The plates were incubated at 37° C. for 30 min, then at room temperature for an additional 15 minutes, before performing the assay on FLIPR. Test compounds were prepared in assay buffer (2 uL of cpd+198 uL assay buffer, final DMSO in assay plate is 0.2%) at the desired concentration, more particularly at 100, 50, 25, 12.5, 6.25, 3.125, 1.562, 0.781, 0.391, 0.195, 0.098, 0.049, 0.024 and 0.012 μM.
The assay was performed on a FLIPR plate reader using the following parameters. Baseline was read for 10 seconds at 1 sec intervals. The program was set to transfer 10 μL of ligand from compound plate to cell plate after baseline reading. Aspiration was executed at: 10 μL/sec speed, 4.6 μL height; Dispensing was executed at: 30 μL/sec speed, 45 μL height. After compound addition, each well was read for 300 sec, with measurements collected at 1 sec intervals.
The kinetic data from the FLIPR was based upon a 5 minute window for data collection. The fluorescence of each sample well was used for individual calculations of a normalized RFU value, which was defined as maximum response minus the minimum response. The normalized fluorescence reading (RFU) was calculated as follows: RFU=Fmax−Fmin The data were fitted to a sigmoidal dose-response curve with a variable Hill slope (<2) using nonlinear regression with GraphPad Prism 5.0 to calculate the EC50 values. The Fitting Equation was: Y=Bottom+(Top−Bottom)/(1+10^((Log EC50−X)*HillSlope)), where X is the log of the concentration and Y is the response.
(In general: Calcium flux is commonly read through the fluorescence of an indicator in the cells.)
Take `CCc1ccc(-c2nsc(C(F)(F)F)c2COc2ccc(CCC(=O)O)c3c2CCC3)cc1` [Cpd 103, 3-(7-[[3-(4-ethylphenyl)-5-(trifluoromethyl)-1,2-thiazol-4-yl]methoxy]-2,3-dihydro-1H-inden-4-yl)propanoic acid]: the EC50 came out at 80 nM.

Regarding `O=C(O)CCc1cc(Br)c(OCc2c(-c3ccc(Cl)cc3)nsc2C(F)(F)F)c(Br)c1` [Cpd 241, 3-(3,5-dibromo-4-[[3-(4-chlorophenyl)-5-(trifluoromethyl)-1,2-thiazol-4-yl]methoxy]phenyl) propanoic acid], the EC50 amounted to 450 nM. Turning to `Cc1c(CCC(=O)O)ccc(OCc2c(-c3ccc(C(C)F)cc3)nsc2C(F)(F)F)c1C` (stereo not shown) [Cpd 146, 3-[4-([3-[4-(1-fluoroethyl)phenyl]-5-(trifluoromethyl)-1,2-thiazol-4-yl]methoxy)-2,3-dimethylphenyl]propanoic acid], the concentration for a half-maximal effect (EC50) amounted to 165 nM.

In the case of `CCc1ccc(-c2nsc(-c3ccccc3)c2COc2ccc(CCC(=O)O)c(C)c2C)cc1` [Cpd 233, 3-(4-[[3-(4-ethylphenyl)-5-phenyl-1,2-thiazol-4-yl]methoxy]-2,3-dimethylphenyl)propanoic acid], the EC50 stood at 1100 nM.

As for `O=C(O)CCc1cc(F)c(OCc2sc(Cl)cc2-c2ccc(Cl)cc2)c(F)c1` [Cpd 10, 3-(4-[[5-chloro-3-(4-chlorophenyl)thiophen-2-yl]methoxy]-3,5-difluorophenyl)propanoic acid], the concentration for a half-maximal effect (EC50) was found to be 123 nM. With `Cc1c(CCC(=O)O)ccc(OCc2sc(Cl)cc2-c2ccc(Cl)cc2)c1C` [Cpd 6, 3-(4-[[5-chloro-3-(4-chlorophenyl)thiophen-2-yl]methoxy]-2,3-dimethylphenyl) propanoic acid] the figure was 90 nM; with `CCCc1ccc(-c2snc(Cl)c2COc2ccc(CCC(=O)O)c(C)c2C)cc1` [Cpd 218, 3-(4-[[3-chloro-5-(4-propylphenyl)-1,2-thiazol-4-yl]methoxy]-2,3-dimethylphenyl)propanoic acid], 688 nM. Consider `COc1ccc(-c2snc(OC)c2COc2c(F)cc(CCC(=O)O)cc2F)cc1` [Cpd 182, 3-(3,5-difluoro-4-[[3-methoxy-5-(4-methoxyphenyl)-1,2-thiazol-4-yl]methoxy]phenyl)propanoic acid], for which the EC50 was found to be 281 nM. With `CCc1ccc(-c2nsc(C3CC3)c2COc2ccc(CCC(=O)O)c(C)c2C)cc1` [Cpd 149, 3-(4-[[5-cyclopropyl-3-(4-ethylphenyl)-1,2-thiazol-4-yl]methoxy]-2,3-dimethylphenyl)propanoic acid] the figure was 167 nM; with `O=C(O)CCc1ccc(OCc2csnc2-c2ccc(Cl)s2)c(F)c1F` [Cpd 226, 3-(4-((3-(5-chlorothiophen-2-yl)isothiazol-4-yl)methoxy)-2,3-difluorophenyl)propanoic acid], 849 nM; with `CCc1ccc(-c2nsc(C(F)(F)F)c2COc2ccc3c(c2)OCC3CCO)cc1` (stereo not shown) [Cpd 220, 2-(6-[[3-(4-ethylphenyl)-5-(trifluoromethyl)-5H-1[3],2-thiazol-4-yl]methoxy]-2,3-dihydro-1-benzofuran-3-yl)ethan-1-ol], 702 nM. The figure for `Cc1c(CCC(=O)O)ccc(OCc2c(-c3ccc(C(C)(F)F)cc3)nsc2C(F)(F)F)c1C` [Cpd 178, 3-[4-([3-[4-(1,1-difluoroethyl)phenyl]-5-(trifluoromethyl)-1,2-thiazol-4-yl]methoxy)-2,3-dimethylphenyl]propanoic acid] is 263 nM; for `CCc1ccc(-c2sncc2COc2ccc(CCC(=O)O)c(C)c2C)cc1` [Cpd 158, 3-(4-[[5-(4-ethylphenyl)-1,2-thiazol-4-yl]methoxy]-2,3-dimethylphenyl)propanoic acid] it is 191 nM; for `C#Cc1ccc(-c2nscc2COc2ccc(CCC(=O)O)c(C)c2C)cc1` [Cpd 161, 3-(4-((3-(4-ethynylphenyl)isothiazol-4-yl)methoxy)-2,3-dimethylphenyl)propanoic acid] it is 202 nM. With `Cc1cc(OCc2c(-c3ccc(Cl)cc3)nsc2C(F)(F)F)c(F)cc1CCC(=O)O` [Cpd 125, 3-(4-((3-(4-chlorophenyl)-5-(trifluoromethyl)isothiazol-4-yl)methoxy)-5-fluoro-2-methylphenyl)propanoic acid] the figure was 121 nM; with `Cc1ccc(-c2snc(-c3ccccc3)c2COc2c(F)cc(CCC(=O)O)cc2F)c(F)c1` [Cpd 211, 3-(3,5-difluoro-4-[[5-(2-fluoro-4-methylphenyl)-3-phenyl-1,2-thiazol-4-yl]methoxy]phenyl)propanoic acid], 597 nM; with `O=C(O)CCc1ccc(OCc2c(-c3ccc(Cl)cc3)csc2C(F)(F)F)c(F)c1F` [Cpd 47, 3-(4-((4-(4-chlorophenyl)-2-(trifluoromethyl)thiophen-3-yl)methoxy)-2,3-difluorophenyl)propanoic acid], 166 nM. Turning to `CCc1ccc(-c2cc(F)sc2COc2ccc(CCCO)c(F)c2F)cc1` [Cpd 17, 3-(4-[[3-(4-ethylphenyl)-5-fluorothiophen-2-yl]methoxy]-2,3-difluorophenyl)propan-1-ol], the concentration for a half-maximal effect (EC50) was 406 nM. With `CCc1ccc(-c2snc(Cl)c2COc2c(F)cc(CCC(=O)O)cc2F)cc1` [Cpd 124, 3-(4-[[3-chloro-5-(4-ethylphenyl)-1,2-thiazol-4-yl]methoxy]-3,5-difluorophenyl)propanoic acid] the figure was 114 nM; with `COc1ccc(-c2csc(C(F)(F)F)c2COc2ccc(CCC(=O)O)c(C)c2C)cc1` [Cpd 60, 3-(4-((4-(4-methoxyphenyl)-2-(trifluoromethyl)thiophen-3-yl)methoxy)-2,3-dimethylphenyl)propanoic acid], 510 nM. With `COc1cc(-c2nsc(C(F)(F)F)c2COc2c(F)cc(CCC(=O)O)cc2F)ccc1Cl` [Cpd 177, 3-(4-((3-(4-chloro-3-methoxyphenyl)-5-(trifluoromethyl)isothiazol-4-yl)methoxy)-3,5-difluorophenyl)propanoic acid], the concentration giving a half-maximal response (EC50) came to 263 nM. `O=C(O)CCc1ccc(OCc2c(-c3ccc(Cl)cc3)nsc2C(F)(F)F)c(F)c1` [Cpd 68, 3-(4-[[3-(4-chlorophenyl)-5-(trifluoromethyl)-1,2-thiazol-4-yl]methoxy]-3-fluorophenyl)propanoic acid]: the EC50 worked out at 28 nM. With `CCc1ccc(-c2nsc(C(C)(F)F)c2COc2ccc(CCC(=O)O)c(C)c2C)cc1` [Cpd 200, 3-(4-[[5-(1,1-difluoroethyl)-3-(4-ethylphenyl)-1,2-thiazol-4-yl]methoxy]-2,3-dimethylphenyl)propanoic acid], the 50% effective concentration (EC50) came to 453 nM. The figure for `Cc1c(/C=C/C(=O)O)ccc(OCc2c(-c3ccc(Cl)cc3)nsc2C(F)(F)F)c1C` [Cpd 244, (E)-3-(4-((3-(4-chlorophenyl)-5-(trifluoromethyl)isothiazol-4-yl)methoxy)-2,3-dimethylphenyl)acrylic acid] is more than 5000 nM; for `OCCCc1cc(F)c(OCc2sc(F)cc2-c2ccc(Cl)cc2)c(F)c1` [Cpd 18, 3-(4-[[3-(4-chlorophenyl)-5-fluorothiophen-2-yl]methoxy]-3,5-difluorophenyl)propan-1-ol] it is 518 nM.
